Calls of active or inactive are those of the source.
Legend:
Format in all cases: functional
[1] = biological target: T1, Sentrin-specific protease 7 (Homo sapiens, UniProt Q9BQF6);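 note: Luminescence-based dose-response confirmation of ultra-high-throughput screening hits, measuring inhibition of SENP7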
T1 sequence (Q9BQF6 whole entry): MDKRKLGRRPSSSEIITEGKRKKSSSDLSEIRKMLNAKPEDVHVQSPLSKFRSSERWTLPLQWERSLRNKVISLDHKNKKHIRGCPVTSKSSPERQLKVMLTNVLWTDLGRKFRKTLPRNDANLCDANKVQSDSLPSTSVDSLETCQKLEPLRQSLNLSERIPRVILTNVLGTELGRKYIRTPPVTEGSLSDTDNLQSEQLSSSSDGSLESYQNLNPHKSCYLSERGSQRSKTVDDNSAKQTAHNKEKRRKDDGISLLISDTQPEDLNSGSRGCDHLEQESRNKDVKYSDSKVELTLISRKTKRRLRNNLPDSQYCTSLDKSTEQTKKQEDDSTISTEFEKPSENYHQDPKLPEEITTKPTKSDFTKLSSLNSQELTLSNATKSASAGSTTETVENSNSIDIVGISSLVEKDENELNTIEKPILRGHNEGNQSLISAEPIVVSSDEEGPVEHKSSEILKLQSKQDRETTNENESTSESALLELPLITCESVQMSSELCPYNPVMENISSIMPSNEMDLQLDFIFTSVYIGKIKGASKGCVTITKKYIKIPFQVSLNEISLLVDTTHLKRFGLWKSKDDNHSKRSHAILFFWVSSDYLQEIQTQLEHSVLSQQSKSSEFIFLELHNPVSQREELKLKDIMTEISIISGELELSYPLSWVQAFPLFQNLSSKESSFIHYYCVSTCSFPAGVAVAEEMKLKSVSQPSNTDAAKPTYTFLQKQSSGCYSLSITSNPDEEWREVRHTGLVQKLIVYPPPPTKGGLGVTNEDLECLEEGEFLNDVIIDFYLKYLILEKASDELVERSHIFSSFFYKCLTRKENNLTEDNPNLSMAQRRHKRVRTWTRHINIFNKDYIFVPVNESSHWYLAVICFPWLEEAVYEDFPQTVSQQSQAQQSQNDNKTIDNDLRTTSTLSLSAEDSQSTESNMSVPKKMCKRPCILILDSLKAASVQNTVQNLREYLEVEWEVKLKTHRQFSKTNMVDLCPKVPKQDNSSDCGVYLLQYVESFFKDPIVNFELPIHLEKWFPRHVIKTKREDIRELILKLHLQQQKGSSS

[2] = biological target: T2, Sentrin-specific protease 6 (Homo sapiens, UniProt Q9GZR1);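 note: Luminescence-based dose-response confirmatory assay of SENP6 inhibition, following up an ultra-high-throughput screen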
T2 sequence (Q9GZR1 whole entry): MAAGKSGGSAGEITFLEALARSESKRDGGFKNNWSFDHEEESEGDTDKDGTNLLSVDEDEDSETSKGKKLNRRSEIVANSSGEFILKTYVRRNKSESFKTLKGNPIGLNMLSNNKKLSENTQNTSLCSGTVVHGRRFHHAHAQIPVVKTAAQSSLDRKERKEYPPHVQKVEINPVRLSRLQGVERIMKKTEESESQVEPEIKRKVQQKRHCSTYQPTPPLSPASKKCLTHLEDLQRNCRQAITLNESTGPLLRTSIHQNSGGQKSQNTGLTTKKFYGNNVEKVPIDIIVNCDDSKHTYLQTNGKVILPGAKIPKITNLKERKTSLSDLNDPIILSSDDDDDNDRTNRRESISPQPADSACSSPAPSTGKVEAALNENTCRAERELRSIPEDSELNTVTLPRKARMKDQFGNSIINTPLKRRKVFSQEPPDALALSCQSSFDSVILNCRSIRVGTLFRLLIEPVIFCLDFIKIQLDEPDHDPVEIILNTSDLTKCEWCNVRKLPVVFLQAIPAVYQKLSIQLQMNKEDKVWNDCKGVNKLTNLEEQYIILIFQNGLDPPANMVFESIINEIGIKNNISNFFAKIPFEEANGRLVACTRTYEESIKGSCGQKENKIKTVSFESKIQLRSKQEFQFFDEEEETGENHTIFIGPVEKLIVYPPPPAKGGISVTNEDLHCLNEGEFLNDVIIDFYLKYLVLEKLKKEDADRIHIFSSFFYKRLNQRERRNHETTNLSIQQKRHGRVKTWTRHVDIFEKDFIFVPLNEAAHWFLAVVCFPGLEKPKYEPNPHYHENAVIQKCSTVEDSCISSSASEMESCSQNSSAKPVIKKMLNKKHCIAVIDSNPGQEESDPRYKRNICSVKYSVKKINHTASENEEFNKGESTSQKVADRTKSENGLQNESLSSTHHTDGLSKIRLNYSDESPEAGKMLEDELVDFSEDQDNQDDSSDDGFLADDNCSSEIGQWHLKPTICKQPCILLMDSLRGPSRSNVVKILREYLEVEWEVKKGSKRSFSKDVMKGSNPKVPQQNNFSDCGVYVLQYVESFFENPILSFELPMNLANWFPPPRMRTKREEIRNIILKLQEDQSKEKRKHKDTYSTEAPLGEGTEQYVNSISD

[3] = biological target: T3, Sentrin-specific protease 8 (Homo sapiens, UniProt Q96LD8);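 note: luminescence read-out of SENP8 inhibition, dose-response confirmation following an ultra-high-throughput screen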
T3 sequence (Q96LD8 whole entry): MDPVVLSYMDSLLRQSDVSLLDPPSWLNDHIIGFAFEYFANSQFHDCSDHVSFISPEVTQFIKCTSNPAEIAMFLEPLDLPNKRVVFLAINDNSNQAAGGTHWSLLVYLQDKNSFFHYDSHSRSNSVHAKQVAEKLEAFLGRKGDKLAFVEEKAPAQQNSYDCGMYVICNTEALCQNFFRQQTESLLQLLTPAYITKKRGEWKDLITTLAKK

[4] = cytotoxicity toward NIH3T3 fibroblasts, dose response, counter-screen, cell-based, ATP luminescence, mouse fibroblasts (AID 2010);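 note: cells exposed to compound for about 90 hours before reading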
[5] = biological target: T4, Ubiquitin-conjugating enzyme E2 N (Homo sapiens, UniProt P61088);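 note: Dose-response confirmation in a TR-FRET assay detecting UBC13-driven polyubiquitin chain formation, inhibition measured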
T4 sequence (P61088 whole entry): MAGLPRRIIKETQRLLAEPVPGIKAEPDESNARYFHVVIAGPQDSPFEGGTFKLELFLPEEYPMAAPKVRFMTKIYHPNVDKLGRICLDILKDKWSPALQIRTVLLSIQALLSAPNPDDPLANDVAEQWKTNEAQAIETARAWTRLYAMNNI

[6] = biological target: Peroxisome proliferator-activated receptor gamma/Nuclear receptor coactivator 2 (Homo sapiens, UniProt P37231);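 note: agonist potency for raising coactivator recruitment to the receptor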
Sequence of Peroxisome proliferator-activated receptor gamma/Nuclear receptor coactivator 2 (P37231 whole entry): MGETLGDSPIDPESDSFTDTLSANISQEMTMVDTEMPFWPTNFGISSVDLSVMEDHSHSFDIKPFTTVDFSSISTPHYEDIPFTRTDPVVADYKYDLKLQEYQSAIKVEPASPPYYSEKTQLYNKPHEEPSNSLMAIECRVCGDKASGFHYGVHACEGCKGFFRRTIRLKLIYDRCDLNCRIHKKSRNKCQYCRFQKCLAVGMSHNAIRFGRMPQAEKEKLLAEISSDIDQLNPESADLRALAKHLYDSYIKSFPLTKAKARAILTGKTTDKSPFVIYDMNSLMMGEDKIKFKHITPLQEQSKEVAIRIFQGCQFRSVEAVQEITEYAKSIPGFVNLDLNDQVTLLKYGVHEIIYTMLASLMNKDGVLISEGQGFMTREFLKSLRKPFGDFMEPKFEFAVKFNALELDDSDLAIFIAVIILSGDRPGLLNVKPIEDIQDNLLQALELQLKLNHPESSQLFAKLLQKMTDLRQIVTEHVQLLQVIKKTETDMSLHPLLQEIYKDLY
Sequence of Peroxisome proliferator-activated receptor gamma/Nuclear receptor coactivator 2 (Q15596 whole entry, further chain): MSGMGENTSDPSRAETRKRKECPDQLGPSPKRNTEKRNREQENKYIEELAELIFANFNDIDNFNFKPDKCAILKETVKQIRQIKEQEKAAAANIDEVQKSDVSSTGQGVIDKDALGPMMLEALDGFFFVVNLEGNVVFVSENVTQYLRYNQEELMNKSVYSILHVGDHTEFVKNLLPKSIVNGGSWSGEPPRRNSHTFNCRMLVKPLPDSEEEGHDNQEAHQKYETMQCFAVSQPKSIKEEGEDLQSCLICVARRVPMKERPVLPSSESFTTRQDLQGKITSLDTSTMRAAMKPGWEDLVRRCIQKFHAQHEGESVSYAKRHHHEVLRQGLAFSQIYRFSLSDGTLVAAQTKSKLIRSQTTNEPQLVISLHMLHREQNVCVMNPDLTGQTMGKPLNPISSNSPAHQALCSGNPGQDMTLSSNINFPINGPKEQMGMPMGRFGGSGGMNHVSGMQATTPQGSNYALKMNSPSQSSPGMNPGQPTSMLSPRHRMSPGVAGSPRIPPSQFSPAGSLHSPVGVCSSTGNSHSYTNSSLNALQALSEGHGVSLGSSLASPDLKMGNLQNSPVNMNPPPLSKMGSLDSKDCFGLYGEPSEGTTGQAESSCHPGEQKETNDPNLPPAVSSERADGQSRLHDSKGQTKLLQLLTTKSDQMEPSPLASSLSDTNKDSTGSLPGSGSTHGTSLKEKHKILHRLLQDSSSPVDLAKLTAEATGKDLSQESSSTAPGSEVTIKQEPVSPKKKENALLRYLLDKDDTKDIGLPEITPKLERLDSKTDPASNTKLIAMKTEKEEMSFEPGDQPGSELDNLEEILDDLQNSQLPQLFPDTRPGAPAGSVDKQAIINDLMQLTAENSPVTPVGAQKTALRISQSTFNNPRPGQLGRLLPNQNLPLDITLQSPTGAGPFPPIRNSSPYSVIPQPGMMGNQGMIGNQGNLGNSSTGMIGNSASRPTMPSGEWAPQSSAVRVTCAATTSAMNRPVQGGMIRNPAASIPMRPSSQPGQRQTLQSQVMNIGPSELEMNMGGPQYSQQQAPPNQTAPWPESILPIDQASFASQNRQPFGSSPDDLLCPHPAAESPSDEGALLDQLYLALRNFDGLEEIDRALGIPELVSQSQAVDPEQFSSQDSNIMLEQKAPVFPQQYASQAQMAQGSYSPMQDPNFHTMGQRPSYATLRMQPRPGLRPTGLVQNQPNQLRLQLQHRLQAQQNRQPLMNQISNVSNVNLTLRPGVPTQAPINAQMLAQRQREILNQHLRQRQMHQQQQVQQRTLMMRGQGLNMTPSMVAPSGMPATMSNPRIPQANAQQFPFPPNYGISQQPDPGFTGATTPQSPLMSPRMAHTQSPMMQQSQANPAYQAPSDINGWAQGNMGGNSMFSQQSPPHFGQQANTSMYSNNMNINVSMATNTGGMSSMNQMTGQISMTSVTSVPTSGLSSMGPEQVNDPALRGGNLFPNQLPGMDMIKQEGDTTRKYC

[7] = biological target: Peroxisome proliferator-activated receptor gamma/Nuclear receptor coactivator 1 (Homo sapiens, UniProt P37231);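 note: agonist potency as compounds enhance coactivator SRC-1 recruitment to PPARgamma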
Sequence of Peroxisome proliferator-activated receptor gamma/Nuclear receptor coactivator 1 (P37231 whole entry): as the sequence (P37231 whole entry) above
Sequence of Peroxisome proliferator-activated receptor gamma/Nuclear receptor coactivator 1 (Q15788 whole entry, further chain): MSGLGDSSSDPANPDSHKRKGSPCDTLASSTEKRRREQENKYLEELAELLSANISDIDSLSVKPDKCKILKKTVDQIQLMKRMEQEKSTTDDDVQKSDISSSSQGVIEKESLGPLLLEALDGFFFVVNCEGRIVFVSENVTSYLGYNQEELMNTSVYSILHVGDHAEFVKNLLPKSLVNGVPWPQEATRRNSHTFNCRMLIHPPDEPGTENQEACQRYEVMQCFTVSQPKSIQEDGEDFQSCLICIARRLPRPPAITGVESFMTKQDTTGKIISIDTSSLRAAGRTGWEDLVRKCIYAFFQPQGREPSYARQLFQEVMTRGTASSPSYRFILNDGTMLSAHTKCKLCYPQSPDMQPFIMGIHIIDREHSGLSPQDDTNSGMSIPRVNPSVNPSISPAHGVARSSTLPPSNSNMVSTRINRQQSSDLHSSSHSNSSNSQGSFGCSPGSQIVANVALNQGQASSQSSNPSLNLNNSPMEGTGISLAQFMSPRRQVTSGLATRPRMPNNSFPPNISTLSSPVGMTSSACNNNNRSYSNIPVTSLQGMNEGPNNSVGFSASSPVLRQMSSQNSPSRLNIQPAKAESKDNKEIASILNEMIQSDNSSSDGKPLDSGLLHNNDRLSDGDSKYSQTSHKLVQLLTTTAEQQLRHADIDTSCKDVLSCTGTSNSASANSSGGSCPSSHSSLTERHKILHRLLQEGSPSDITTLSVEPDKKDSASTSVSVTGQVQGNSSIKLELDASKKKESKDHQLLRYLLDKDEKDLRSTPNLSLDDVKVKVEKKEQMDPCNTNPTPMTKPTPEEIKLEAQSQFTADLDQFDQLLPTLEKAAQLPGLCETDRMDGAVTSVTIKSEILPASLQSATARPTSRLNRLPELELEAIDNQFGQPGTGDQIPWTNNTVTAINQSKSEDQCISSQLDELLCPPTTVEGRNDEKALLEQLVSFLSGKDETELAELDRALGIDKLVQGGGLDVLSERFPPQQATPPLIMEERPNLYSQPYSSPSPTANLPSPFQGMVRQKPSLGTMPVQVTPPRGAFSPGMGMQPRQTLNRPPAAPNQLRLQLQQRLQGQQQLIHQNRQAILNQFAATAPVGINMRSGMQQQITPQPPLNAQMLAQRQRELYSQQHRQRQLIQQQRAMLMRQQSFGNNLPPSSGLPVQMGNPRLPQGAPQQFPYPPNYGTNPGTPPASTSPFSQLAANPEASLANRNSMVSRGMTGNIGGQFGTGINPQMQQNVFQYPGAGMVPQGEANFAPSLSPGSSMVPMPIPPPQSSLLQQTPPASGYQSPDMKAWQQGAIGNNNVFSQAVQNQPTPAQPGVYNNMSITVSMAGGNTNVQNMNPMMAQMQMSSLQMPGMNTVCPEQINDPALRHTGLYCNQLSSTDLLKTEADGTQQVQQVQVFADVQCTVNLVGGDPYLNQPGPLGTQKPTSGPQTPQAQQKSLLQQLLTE

[8] = Luminescence-based dose response cell-based high throughput screening assay for cytotoxic compounds using the IEC-6 intestinal epithelial cell line. [Related pubchem assays: 1858 (Summary AID.), 1825 (Counterscreen.), 1907 (Confirmation screen.)]
[9] = biological target: Sphingosine 1-phosphate receptor 1 (Homo sapiens, UniProt P21453);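 note: Tango beta-arrestin reporter U2OS cells stimulated with S1P near its EC80; inhibitor potency meaning antagonism of receptor activation by the natural agonist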
Sequence of Sphingosine 1-phosphate receptor 1 (P21453 whole entry): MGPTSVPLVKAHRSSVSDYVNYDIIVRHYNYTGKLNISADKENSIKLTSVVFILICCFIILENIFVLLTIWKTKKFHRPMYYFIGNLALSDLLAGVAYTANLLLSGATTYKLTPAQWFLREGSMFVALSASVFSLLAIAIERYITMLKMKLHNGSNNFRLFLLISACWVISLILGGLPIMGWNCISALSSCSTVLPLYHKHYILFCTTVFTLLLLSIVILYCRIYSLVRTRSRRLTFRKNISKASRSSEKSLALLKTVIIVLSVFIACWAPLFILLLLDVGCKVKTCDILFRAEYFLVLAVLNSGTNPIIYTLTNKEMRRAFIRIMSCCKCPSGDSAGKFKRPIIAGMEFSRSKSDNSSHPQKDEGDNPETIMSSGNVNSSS

O=C(NC1(O)C(=O)c2ccccc2C1=O)c1ccccc1
IC50 [1]: 2.99 µM (active) | IC50 [2]: 2.39 µM (active) | IC50 [3]: 4.39 µM (active)

CCCCCCCCCCCCCCCCn1cc[n+](C)c1
EC50 ([4]; NIH3T3): 8.99 µM (active) | EC50 ([4]; nih3t3): 8.81 µM (active) | IC50 [5]: > 20 µM (inactive)

Cc1cc(C)nc(/N=c2/ssnc2Cl)c1
EC50 [6]: > 79.4 µM (not active) | EC50 [7]: > 79.4 µM (not active)

O=C(Nc1ccccc1Cl)/C(Cl)=C(\Cl)[S+]([O-])c1ccccc1 (stereo not given)
IC50 [8]: 2.52 µM (active) | IC50 [9]: 10.3 µM (not active)

— ChEMBL document CHEMBL1201862, “PubChem BioAssay data set” (2004)
